Measurements as given in patent US10946020B2, “Compositions and methods for treating cancer” (University of Virginia Patent Foundation, priority 2016, dated 2021).

What was measured:
[1] = molecular target: DGKα (Homo sapiens, UniProt P23743); assay: DGKα kinase assay with liposomes and purified enzyme; format: biochemical; settings: purified enzyme, liposomes; highest drug concentration 100 μM
Procedure: To obtain purified protein, 293T cells were cultured in DMEM containing 5% fetal calf serum and 1% penicillin/streptomycin (GIBCO™, Thermo Fisher Scientific, Waltham, Mass., United States of America). The cells were transiently transfected with 40 μg of pcDNA3-FLAG-DGKα plasmid/plate. The transfection was done using lipofectamine 2000 at a 2:1 ratio of DNA:lipofectamine. The cells were harvested and homogenized in lysis buffer (10 mM Na2HPO4, pH 7.4, 50 mM β-glucopyranose, 50 mM NaF, 1 mM EDTA, 1 mM EGTA, 0.02% Triton X-100, phenylmethylsulfonyl fluoride, leupeptine, and pepstatin). The cell homogenate was centrifuged at 16,000×g at 4° C. for 10 minutes. The supernatant was immunoprecipitated with anti-FLAG (M2) beads for 2 hours at 4° C. The beads were packed onto a screening column and washed five times with the lysis buffer. The protein was eluted with five successive 200 μl fractions of 0.5 mg/ml of FLAG peptide (LifeTein, LLC, Somerset, N.J., United States of America). The elution fractions containing DGKα were combined and dialyzed three times against 10 mM Na2HPO4 (pH 7.4), and 50 mM β-glucopyranose, 50 mM NaF, 1 mM EDTA, and 1 mM EGTA. The purified DGKs were quantified with UV absorbance and by comparing DGKα bands with bovine serum albumin standards on Coomassie-blue stained SDS-PAGE gels. […]

[2] = tested on: HSP60; assay: dot-blot phospho-proteomics assay in U251; format: cell-based, human; settings: U251, 15 μM ritanserin, lysed at 24 hours
Procedure: (§1) Immunoblotting was performed as previously described. […] Antibodies were obtained from Cell Signaling Technology (Danvers, Mass., United States of America). Cells were lysed 24-72 hours post-treatment in 1× lysis buffer. The Human Phospho-Kinase Array kit (R&D Systems, Minneapolis, Minn., United States of America) was used to identify ritanserin targets. Immunoblots were performed with multiple replicates.
(§2) A dot-blot proteomics assay was used to investigate ritanserin downstream targets. U251 treated with 15 μM ritanserin were lysed at 24 hours. Several target proteins were substantially changed with ritanserin treatment. HSP60 decreased to 10% of baseline. Heat shock proteins are molecular targets in glioblastoma, and their loss prevents the unfolded protein response. See Ampie et al., 2015. HIF-1a and possibly mTOR up-regulate HSP60. P70 S6K phosphorylation at T389/T421 was decreased, as expected given DGKα activation of mTOR.

[3] = tested on: P70 S6K phosphorylation at T389/T421; assay: dot-blot phospho-proteomics assay in U251; format: cell-based, human; settings: U251, 15 μM ritanserin, lysed at 24 hours
Procedure: as §1, §2

[4] = tested on: geranylgeranyltransferase type 1 (GGTase I); assay: unprenylated Rap1A immunoblot; format: cell-based; settings: various GBM cells
Excerpt: (§3) Further, based on increases in unprenylated ras-related protein Rap1A in various GBM cells, it appears that ritanserin inhibits geranylgeranyltransferase type 1 (GGTase I).

[5] = tested on: G88 mesenchymal GBM stem cell line; assay: intracranial G88 mesenchymal GBM stem cell xenograft survival; format: in vivo, mice; settings: 50 mg/kg daily, started six days after implantation; vehicle 17.5 days
Procedure: (§4) Intracranial surgical implantation of tumor was as previously described. See Kefas et al., 2013. In brief, 400,000 U251 human glioblastoma or 50,000 GL261 mouse glioma suspended in 4 μL of serum-free DMEM were injected into anesthetized mice through a burr hole placed […] to the bregma. Treatment for 8-9 mice per group began 6-7 days post-tumor implantation via oral gavage and continued daily. Magnetic resonance images were taken at 3 weeks post-tumor implantation to assess tumor volume, and volumes were calculated as previously described. See Kefas et al., 2013. Mice were euthanized at 20% weight loss or with the first sign of neurological impairment.
(§5) Glioblastomas can be categorized into four different subtypes based on gene expression patterns and clinical characterization. […] In particular, median survival increased from 17.5 days to 28.5 days in mice with xenografts from a G88 mesenchymal GBM stem cell line.

[6] = previous studies; cited from earlier work
[7] = tested on: mesenchymal GBM stem cells (G2, G88); assay: radiosensitization, soft agar colony assay; format: cell-based; settings: 1.25 μM ritanserin, 4 Gy radiation, colonies after two weeks
Procedure: (§6) Since radiation is a frontline treatment for GBM, the combination of ritanserin treatment and radiotherapy was tested. The radiosensitization of two different mesenchymal GBM stem cells, including a radioresistant cell type (i.e., G88 cells) is shown in FIGS. 9A and 9B. […] Chou-Talalay analysis indicated synergy. Ritanserin treatment also appears to affect downstream regulators of the radiation response. NF-κB has been indicated as a factor in radioresistance. Thus, the effect of ritanserin on NF-κB expression was also measured in two mesenchymal GBM cell lines using a NF-κB luciferase assay.

[8] = tested on: Immortalized astrocytes; assay: viability of immortalized astrocytes; format: cell-based
Excerpt: (§7) Single dye controls were used for compensation. […] Experiments were repeated several times per cell type.

[9] = tested on: JWL578 GBM stem cell line; assay: cell growth suppression, live cell count; format: cell-based; settings: Homo sapiens, 96 h; single dose, live cells four days post-treatment
Procedure: as §7
(§8) Several cancer cell lines were tested in vitro to determine whether ritanserin was cytotoxic. A single dose of ritanserin was sufficient to suppress cell growth in GBM lines U251 (human), GL261 (mouse), and JWL578 (human GBM stem cell line) with IC50s 5-10 μM, very similar to previous results with R59022. See also, Dominguez et al., 2013. […] Data from alamarBlue assays, a measure of cellular viability, provided similar IC50s. Immortalized astrocytes were viable above 20 μM ritanserin.

[10] = tested on: U251 GBM line; assay: cell growth suppression, live cell count; format: cell-based; settings: Homo sapiens, U-251, 96 h; single dose, live cells four days post-treatment
Procedure: as §7, §8

[11] = tested on: GL261 GBM line; assay: cell growth suppression, live cell count; format: cell-based; settings: Mus musculus, GL261, 96 h; single dose, live cells four days post-treatment
Procedure: as §7, §8

[12] = tested on: lung (A549) and pancreatic (MPanc-96) carcinoma cells; assay: ritanserin sensitivity after epithelial-mesenchymal transition; format: cell-based; settings: EMT induced with TNF-alpha and TGF-beta; 15 μM (lung), 10 μM (pancreatic)
Excerpt: Thus it appears that the mesenchymal cancer phenotype can be preferentially targeted with ritanserin in GBM and in other cancers, as well.

[13] = tested on: VMM39 melanoma line; assay: cell growth suppression, live cell count; format: cell-based; settings: Homo sapiens, VMM39, 96 h; single dose, live cells four days post-treatment
[14] = tested on: HIF-1α; assay: HIF-1α binding site reporter dual luciferase assay; format: cell-based, human; settings: U251, 20 μM ritanserin vs vehicle
Procedure: (§9) mTOR promoter reporter-RLuc or HIF-1α binding site-FLuc plasmids were transfected into serum-starved U251 and VMM39 one day after cell plating at 60-80% confluency using Fugene HD at 3:1 (Promega Corporation, Fitchburg, Wis., United States of America). Cells were fed several hours post-transfection and ritanserin was added. Cells were lysed after 36-48 hours and assayed with the Dual-Luciferase Reporter assay system kit (Promega Corporation, Fitchburg, Wis., United States of America) and Promega GloMax® 20/20 luminometer (Promega Corporation, Fitchburg, Wis., United States of America). Results were double-normalized using control empty vectors pRL and pGL3.
(§10) To compare to previous findings that DGKα inhibition affects mTOR transcription, U251 and VMM39 were transfected with an mTOR promoter reporter and treated with ritanserin or vehicle. […] Ritanserin therefore appears to mimic R59022's effects on known DGKα targets in the mTOR and HIF-1α signaling pathways. See Dominguez et al., 2013.

[15] = tested on: NF-κB; assay: NF-κB luciferase assay; format: cell-based; settings: two mesenchymal GBM cell lines (G2, G88)
Procedure: as §6

[16] = tested on: mTOR promoter; assay: mTOR promoter reporter dual luciferase assay; format: cell-based, human; settings: U251 and VMM39, 20 μM ritanserin vs vehicle
Procedure: as §9, §10

[17] = molecular target: serotonin (5-hydroxytryptamine, 5-HT) subtype 5-HT2; settings: read-out: Ki as 5-HT2 antagonist; cited from earlier work
[18] = tested on: B16 melanoma line; assay: cell growth suppression, live cell count; format: cell-based; settings: Mus musculus, B16, 96 h; single dose, live cells four days post-treatment
[19] = previous studies (Leysen et al., 1985); cited from earlier work
[20] = tested on: p53 S15; assay: immunoblot of p53 S15 phosphorylation; format: cell-based, human; settings: extracts from U251 and VMM39 cell lines
Procedure: as §1
Decreased p53 S15 can cause chemosensitization to other cytotoxic reagents. p53 is hyper-phosphorylated after serine 15 phosphorylation in DNA-damaged cells as an […], pro-transcriptional pathway, and antagonism of S15 phosphorylation is associated with increasing sensitivity to DNA-damaging agents. See Loughery et al., 2014; and Wittlinger et al., 2007. Immunoblots of extracts from both U251 and VMM39 cell lines confirmed that ritanserin decreases S15 phosphorylation.

[21] = tested on: RhoA; assay: RhoA ELISA; format: cell-based; settings: G2 and G88 mesenchymal GBM cells
Excerpt: as §3

[22] = tested on: GL261 mouse glioma cells; assay: syngeneic intracranial GL261 glioma model; format: in vivo, C57BL/6 mice
Procedure: as §4
(§11) DGKα inhibition decreases T-cell anergy. Thus, it is believed that a syngeneic, immunocompetent tumor model could show a stronger survival benefit. GL261 mouse glioma cells were implanted intracranially and treatment begun six days later. Ritanserin improved median survival to 64 days versus 36 days with vehicle. […] Ritanserin treatment also yielded decreases in tumor size and prolonged survival in other cell lines and xenograft models.

[23] = tested on: G2 mesenchymal GBM stem cell line; assay: intracranial G2 mesenchymal GBM stem cell xenograft survival; format: in vivo, mice; settings: 50 mg/kg daily oral gavage vs vehicle
[24] = tested on: VMM39 human melanoma cells; assay: subcutaneous melanoma tumor model; format: in vivo, athymic nu/nu mice; settings: 50 mg/kg, compared to vehicle and 10 mg/kg ritanserin
Procedure: For subcutaneous tumors, 250,000 VMM39 human melanoma cells were injected subcutaneously into the left flank. After two weeks, tumors were measured daily using electronic calipers and tumor volume calculated. Mice were euthanized when tumors were greater than […] in any dimension or greater than 1000 mm^3 in volume.
as §11

[25] = tested on: mesenchymal GBM cell lines; assay: ritanserin treatment of 11 GBM cell lines of various sub-types; format: cell-based; settings: in vitro
Excerpt: as §5

[26] = tested on: U251 GBM and VMM39 melanoma cell lines; assay: Annexin V cell death assay (flow cytometry); format: cell-based, human; settings: compared to controls
Procedure: as §7
To determine the mechanism of ritanserin cytotoxicity, ritanserin-treated cells were assayed for Annexin V-positivity as well as cellular permeability (with DNA dye 7-AAD).

[27] = tested on: U251 human glioblastoma cells; assay: orthotopic intracranial U251 xenograft survival; format: in vivo, athymic nu/nu mice; settings: 50 mg/kg daily oral gavage, started one week after injection
Procedure: as §4
Athymic nu/nu mice were injected with U251 cells and one week later began daily oral gavage treatment.

Chain of DGKα (P23743 whole entry, species assumed): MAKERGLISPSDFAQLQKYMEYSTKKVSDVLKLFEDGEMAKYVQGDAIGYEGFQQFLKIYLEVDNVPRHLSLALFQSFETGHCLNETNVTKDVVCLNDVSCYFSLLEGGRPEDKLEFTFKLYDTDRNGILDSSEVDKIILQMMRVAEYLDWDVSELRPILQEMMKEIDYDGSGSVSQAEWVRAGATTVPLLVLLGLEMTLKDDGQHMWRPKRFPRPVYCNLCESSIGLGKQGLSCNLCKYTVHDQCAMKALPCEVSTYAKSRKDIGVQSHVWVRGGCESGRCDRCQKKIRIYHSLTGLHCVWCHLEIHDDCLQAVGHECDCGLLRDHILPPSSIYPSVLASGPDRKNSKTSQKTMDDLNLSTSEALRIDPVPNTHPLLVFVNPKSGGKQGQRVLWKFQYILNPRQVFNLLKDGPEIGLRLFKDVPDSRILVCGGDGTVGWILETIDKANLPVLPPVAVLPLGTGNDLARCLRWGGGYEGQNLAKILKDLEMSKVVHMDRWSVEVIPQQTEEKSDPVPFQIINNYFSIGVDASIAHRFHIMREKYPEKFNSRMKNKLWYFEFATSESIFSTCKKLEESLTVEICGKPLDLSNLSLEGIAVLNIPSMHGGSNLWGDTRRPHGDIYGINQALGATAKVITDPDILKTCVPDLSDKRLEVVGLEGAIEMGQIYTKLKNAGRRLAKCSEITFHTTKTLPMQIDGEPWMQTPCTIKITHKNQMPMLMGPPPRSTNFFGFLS

Cc1nc2sccn2c(=O)c1CCN1CCC(=C(c2ccccc2)c2ccc(F)cc2)CC1 [R59022]
IC50 [1]: 20 µM

Cc1nc2sccn2c(=O)c1CCN1CCC(=C(c2ccc(F)cc2)c2ccc(F)cc2)CC1 [ritanserin, 6-[2-[4-[bis(4-fluorophenyl)methylidene]piperidin-1-yl]ethyl]-7-methyl-[1,3]thiazolo[3,2-a]py-rimidin-5-one]
HSP60 level [2]: 10 % of baseline | P70 S6K phosphorylation at T389/T421 [3]: decreased | GGTase I inhibition inferred from unprenylated Rap1A [4]: inhibits | median survival [5]: 28.5 days | oral bioavailability [6]: orally bioavailable | radiosensitization, colony number [7]: clear radiosensitization effect | ritanserin concentration at which astrocytes were viable [8]: above 20 μM | IC50 [9]: 5 to 10 µM | IC50 [10]: 5 to 10 µM | IC50 [11]: 5 to 10 µM | sensitivity to ritanserin after EMT [12]: more sensitive | IC50 [13]: 10 to 15 µM | HIF-1α reporter activity [14]: loss of HIF-1α reporter activity | NF-κB expression [15]: decreased NF-κB expression | mTOR promoter activity [16]: strongly decreased | Ki [17]: 0.39 nM | IC50 [18]: 10 to 15 µM | brain exposure [19]: reach the brain in meaningful concentrations | p53 S15 phosphorylation [20]: decreases | RhoA expression [21]: inhibit RhoA expression | median survival ([22]; 50 mg/kg daily oral, started six days after implantation, vehicle 36 days): 64 days | tumor size by magnetic resonance imaging ([22]; three weeks after implantation, vs vehicle): decreased tumor size | median survival [23]: increased | tumor formation [24]: delayed tumor formation | sensitivity of mesenchymal GBM cell lines relative to other subtypes [25]: three to four times more sensitive | Annexin V positivity [26]: increased Annexin V | survival [27]: increased survival significantly | IC50 [1]: 9 µM
